According to ChEMBL document CHEMBL4376889, “Discovery of a Brain-Penetrant ATP-Competitive Inhibitor of the Mechanistic Target of Rapamycin (mTOR) for CNS Disorders” (J Med Chem, 2020):
Activity calls are given as the source filed them. No cut-off for these calls is given here.

Key:
[1] = Cmax in Sprague-Dawley rat at 1 mg/kg, iv or 3 mg/kg, po by HPLC analysis; type: ADME, organism-based; settings: in vivo
[2] = Volume of distribution at steady state in Sprague-Dawley rat at 1 mg/kg, iv or 3 mg/kg, po by HPLC analysis; type: ADME, organism-based; settings: in vivo, read-out: Vdss
[3] = biological target: Phosphatidylinositol 4,5-bisphosphate 3-kinase catalytic subunit beta isoform (Homo sapiens, UniProt P42338); assay: Inhibition of PI3Kbeta (unknown origin)
Sequence of Phosphatidylinositol 4,5-bisphosphate 3-kinase catalytic subunit beta isoform (P42338 whole entry, canonical isoform): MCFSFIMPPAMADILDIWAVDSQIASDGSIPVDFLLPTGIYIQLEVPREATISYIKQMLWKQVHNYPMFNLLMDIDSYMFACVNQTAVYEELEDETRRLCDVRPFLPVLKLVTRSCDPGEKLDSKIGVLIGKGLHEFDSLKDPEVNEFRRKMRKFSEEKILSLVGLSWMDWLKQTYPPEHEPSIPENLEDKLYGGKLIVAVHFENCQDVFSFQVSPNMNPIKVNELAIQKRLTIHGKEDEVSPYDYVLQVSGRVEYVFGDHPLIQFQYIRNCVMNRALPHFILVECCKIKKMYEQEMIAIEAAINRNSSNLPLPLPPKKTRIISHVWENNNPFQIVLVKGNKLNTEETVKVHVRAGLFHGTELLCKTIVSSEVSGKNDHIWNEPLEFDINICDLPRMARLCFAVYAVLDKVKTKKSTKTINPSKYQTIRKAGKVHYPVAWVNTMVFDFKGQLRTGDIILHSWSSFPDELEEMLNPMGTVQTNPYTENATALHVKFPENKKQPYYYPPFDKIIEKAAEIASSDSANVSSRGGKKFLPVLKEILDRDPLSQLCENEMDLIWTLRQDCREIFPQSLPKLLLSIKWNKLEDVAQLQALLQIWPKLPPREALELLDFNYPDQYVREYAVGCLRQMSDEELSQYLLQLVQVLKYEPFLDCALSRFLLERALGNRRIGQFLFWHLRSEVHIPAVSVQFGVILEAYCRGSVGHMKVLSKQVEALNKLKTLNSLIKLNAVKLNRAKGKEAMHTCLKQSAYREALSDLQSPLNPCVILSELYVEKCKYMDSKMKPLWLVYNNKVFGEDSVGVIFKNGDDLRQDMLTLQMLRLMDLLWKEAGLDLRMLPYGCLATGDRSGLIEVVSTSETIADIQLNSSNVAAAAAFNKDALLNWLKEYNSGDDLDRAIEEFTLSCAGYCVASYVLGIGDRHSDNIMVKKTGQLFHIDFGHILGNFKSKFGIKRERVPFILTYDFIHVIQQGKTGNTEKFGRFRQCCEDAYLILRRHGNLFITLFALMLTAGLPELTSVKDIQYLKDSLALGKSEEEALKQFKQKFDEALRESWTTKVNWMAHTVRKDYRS

[4] = Selectivity index, ratio of IC50 for PDE4D (unknown origin) to IC50 for inhibition of mTOR in mouse MEF cells harboring TSC1 deletion mutant; type: cell-based
[5] = Drug uptake in C57BL/6J mouse plasma at 1 mg/kg, po incubated for 3 hrs by LC-MS/MS analysis; type: ADME, organism-based
[6] = biological target: Serine/threonine-protein kinase mTOR (Rattus norvegicus, UniProt P42346, S2215Y); assay: Inhibition of mTOR S2215Y mutant in rat primary cortical neuron assessed as reduction in PS6 phosphorylation incubated for 4 hrs by Western blot analysis (reference value: 19 nM)
Sequence of Serine/threonine-protein kinase mTOR (Rattus norvegicus, UniProt P42346, S2215Y) (P42346 whole entry S2215Y, looked up): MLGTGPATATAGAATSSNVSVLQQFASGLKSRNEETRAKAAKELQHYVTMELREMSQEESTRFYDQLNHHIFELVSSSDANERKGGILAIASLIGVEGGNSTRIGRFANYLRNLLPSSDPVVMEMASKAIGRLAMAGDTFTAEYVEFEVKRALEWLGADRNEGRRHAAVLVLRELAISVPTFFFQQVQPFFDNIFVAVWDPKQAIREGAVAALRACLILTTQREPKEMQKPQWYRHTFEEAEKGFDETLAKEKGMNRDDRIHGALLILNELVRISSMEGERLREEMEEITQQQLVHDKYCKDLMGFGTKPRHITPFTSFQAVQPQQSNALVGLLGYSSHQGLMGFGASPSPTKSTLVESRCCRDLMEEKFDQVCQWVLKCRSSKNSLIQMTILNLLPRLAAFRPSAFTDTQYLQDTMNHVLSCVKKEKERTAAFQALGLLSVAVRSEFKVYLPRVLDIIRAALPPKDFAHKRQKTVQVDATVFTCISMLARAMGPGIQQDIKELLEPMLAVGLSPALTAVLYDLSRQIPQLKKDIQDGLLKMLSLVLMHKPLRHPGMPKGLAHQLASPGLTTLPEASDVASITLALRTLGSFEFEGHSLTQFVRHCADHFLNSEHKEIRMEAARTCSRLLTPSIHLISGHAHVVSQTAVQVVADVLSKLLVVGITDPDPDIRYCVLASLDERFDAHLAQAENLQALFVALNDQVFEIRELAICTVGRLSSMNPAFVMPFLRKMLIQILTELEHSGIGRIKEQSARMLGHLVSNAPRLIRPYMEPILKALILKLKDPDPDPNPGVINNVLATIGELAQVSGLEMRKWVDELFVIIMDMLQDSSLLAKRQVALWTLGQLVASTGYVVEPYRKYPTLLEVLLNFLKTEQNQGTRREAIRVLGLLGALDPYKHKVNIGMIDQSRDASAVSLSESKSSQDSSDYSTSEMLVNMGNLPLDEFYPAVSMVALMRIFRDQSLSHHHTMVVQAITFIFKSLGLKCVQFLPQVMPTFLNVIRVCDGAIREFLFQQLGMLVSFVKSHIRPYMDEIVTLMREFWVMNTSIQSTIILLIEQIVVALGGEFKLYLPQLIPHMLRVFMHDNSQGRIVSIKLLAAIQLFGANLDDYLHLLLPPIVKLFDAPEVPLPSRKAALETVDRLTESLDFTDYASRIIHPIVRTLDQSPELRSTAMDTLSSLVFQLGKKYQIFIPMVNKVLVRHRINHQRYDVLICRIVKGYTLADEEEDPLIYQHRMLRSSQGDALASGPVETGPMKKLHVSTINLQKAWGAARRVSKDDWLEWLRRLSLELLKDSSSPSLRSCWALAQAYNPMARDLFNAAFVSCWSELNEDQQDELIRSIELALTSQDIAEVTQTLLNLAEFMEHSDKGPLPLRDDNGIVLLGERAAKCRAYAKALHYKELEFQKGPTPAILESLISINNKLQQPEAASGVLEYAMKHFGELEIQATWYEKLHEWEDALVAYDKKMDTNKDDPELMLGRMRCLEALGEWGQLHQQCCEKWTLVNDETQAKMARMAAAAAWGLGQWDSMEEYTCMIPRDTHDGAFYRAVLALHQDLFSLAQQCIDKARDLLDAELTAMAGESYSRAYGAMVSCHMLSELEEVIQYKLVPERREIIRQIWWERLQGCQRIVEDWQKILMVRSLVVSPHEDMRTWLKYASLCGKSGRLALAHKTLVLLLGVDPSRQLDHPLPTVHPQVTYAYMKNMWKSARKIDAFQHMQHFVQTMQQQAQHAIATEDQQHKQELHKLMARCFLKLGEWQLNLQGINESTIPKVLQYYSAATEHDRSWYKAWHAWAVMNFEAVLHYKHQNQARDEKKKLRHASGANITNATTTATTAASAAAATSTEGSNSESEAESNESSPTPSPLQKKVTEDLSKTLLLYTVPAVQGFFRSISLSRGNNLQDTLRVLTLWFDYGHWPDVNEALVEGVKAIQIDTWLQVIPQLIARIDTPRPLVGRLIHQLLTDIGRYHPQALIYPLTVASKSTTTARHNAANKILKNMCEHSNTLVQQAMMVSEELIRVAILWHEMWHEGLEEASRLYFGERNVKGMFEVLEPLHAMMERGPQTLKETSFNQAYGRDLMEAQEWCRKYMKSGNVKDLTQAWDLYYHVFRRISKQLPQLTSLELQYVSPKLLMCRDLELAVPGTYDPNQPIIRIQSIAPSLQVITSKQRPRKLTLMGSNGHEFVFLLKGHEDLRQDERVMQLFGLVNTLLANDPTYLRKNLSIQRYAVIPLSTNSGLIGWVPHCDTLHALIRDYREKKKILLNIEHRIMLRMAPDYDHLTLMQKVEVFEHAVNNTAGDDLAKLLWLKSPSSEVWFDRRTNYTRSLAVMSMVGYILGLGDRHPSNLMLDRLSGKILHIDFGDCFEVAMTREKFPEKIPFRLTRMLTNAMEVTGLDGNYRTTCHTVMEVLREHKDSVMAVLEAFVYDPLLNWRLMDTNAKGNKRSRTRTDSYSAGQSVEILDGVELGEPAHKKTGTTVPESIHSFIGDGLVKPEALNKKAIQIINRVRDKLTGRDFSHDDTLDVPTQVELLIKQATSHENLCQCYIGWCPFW

[7] = Clearance in C57BL/6 mouse at 1 mg/kg, iv or 5 mg/kg, po by HPLC analysis; type: ADME, organism-based; settings: in vivo
[8] = Selectivity index, ratio of IC50 for DNAPK (unknown origin) to IC50 for inhibition of mTOR in mouse MEF cells harboring TSC1 deletion mutant; type: cell-based
Mus musculus [9] = assay: Protection against C57BL/6J mouse model of neuronal mTOR hyperactivity assessed as survival rate at 10 mg/kg, ip administered on postnatal day 22 daily and measured on postnatal day 52 (reference value: 48 %); type: functional
[10] = Ratio of drug concentration in brain to plasma in C57BL/6 mouse at 1 mg/kg, iv incubated for 2 hrs by LC-MS/MS analysis; type: ADME, organism-based; settings: read-out: BPR
Mus musculus [11] = assay: In vivo inhibition of mTOR pathway in C57BL/6J mouse assessed as reduction in mTORC1/mTORC2 complex by measuring AKT phosphorylation level at 1 to 10 mg/kg, po measured after 24 hrs by Western blot analysis; type: functional, organism-based
[12] = Stability in rat liver microsomes assessed as intrinsic clearance; type: ADME, Microsome; settings: read-out: CLH
[13] = biological target: Serine/threonine-protein kinase mTOR (Mus musculus) (UniProt Q9JLN9); assay: Inhibition of mTOR in mouse primary cortical neuron harboring TSC1 deletion mutant assessed as reduction in PS6 phosphorylation incubated for 4 hrs by Western blot analysis
[14] = biological target: Serine/threonine-protein kinase mTOR (Rattus norvegicus, UniProt P42346, S2215F); assay: Inhibition of mTOR S2215F mutant in rat primary cortical neuron assessed as reduction in PS6 phosphorylation incubated for 4 hrs by Western blot analysis (reference value: 19 nM)
Sequence of Serine/threonine-protein kinase mTOR (Rattus norvegicus, UniProt P42346, S2215F) (P42346 whole entry S2215F, looked up): as the sequence (P42346 whole entry S2215Y, looked up) above, with Y2215F counted along it

[15] = biological target: Serine/threonine-protein kinase mTOR (Mus musculus, UniProt Q9JLN9); assay: Inhibition of mTOR in mouse MEF cells harboring TSC1 deletion mutant assessed as reduction in PS6 phosphorylation incuabted for 2 hrs alexa fluor 594 and Hoechst staining based fluorescence assay; type: cell-based
Mus musculus [16] = assay: In vivo inhibition of PI3KCA in C57BL/6J mouse assessed as reduction in AKT phosphorylation Thr308 at 1 to 10 mg/kg, po measured after 24 hrs by Western blot analysis; type: functional, organism-based
[17] = Ratio of drug concentration in brain to plasma in C57BL/6 mouse at 1 mg/kg, iv incubated for 0.5 hrs by LC-MS/MS analysis; type: ADME, organism-based; settings: read-out: BPR
[18] = Stability in rat liver microsomes assessed as intrinsic clearance at 1 uM incubated for 30 mins by LC-MS/MS analysis; type: ADME, Microsome; settings: read-out: CLH
[19] = Ratio of drug concentration in brain to plasma in Sprague-Dawley rat at 3 mg/kg, po incubated for 1 hr by LC-MS/MS analysis; type: ADME, organism-based; settings: read-out: BPR
[20] = Volume of distribution at steady state in C57BL/6 mouse at 1 mg/kg, iv or 5 mg/kg, po by HPLC analysis; type: ADME, organism-based; settings: in vivo, read-out: Vdss
[21] = Selectivity index, ratio of IC50 for ATR (unknown origin) to IC50 for inhibition of mTOR in mouse MEF cells harboring TSC1 deletion mutant; type: cell-based
[22] = Oral bioavailability in Sprague-Dawley rat at 3 mg/kg by HPLC analysis; type: ADME, organism-based; settings: in vivo
[23] = Protein binding in Sprague-Dawley rat brain homogenate at 5 uM incubated for 4 hrs by LC-MS/MS analysis; type: ADME, tissue-based; settings: read-out: PB (converted)
[24] = biological target: 1-phosphatidylinositol 3-phosphate 5-kinase (Homo sapiens) (UniProt Q9Y2I7); assay: Inhibition of wild-type human partial length PIKFYVE (F1512 to C2098 residues) expressed in mammalian expression system at 10000 nM by Kinomescan method
[25] = Half life in Sprague-Dawley rat at 1 mg/kg, iv or 3 mg/kg, po by HPLC analysis; type: ADME, organism-based; settings: in vivo
[26] = Drug uptake in C57BL/6J mouse plasma at 10 mg/kg, po incubated for 3 hrs by LC-MS/MS analysis; type: ADME, organism-based
[27] = biological target: Serine/threonine-protein kinase mTOR (Rattus norvegicus, UniProt P42346, C1483Y); assay: Inhibition of mTOR C1483Y mutant in rat primary cortical neuron assessed as reduction in PS6 phosphorylation incubated for 4 hrs by Western blot analysis (reference value: 19 nM)
Sequence of Serine/threonine-protein kinase mTOR (Rattus norvegicus, UniProt P42346, C1483Y) (P42346 whole entry C1483Y, looked up): as the sequence (P42346 whole entry S2215Y, looked up) above, with C1483Y, Y2215S counted along it

[28] = Drug uptake in C57BL/6J mouse brain at 1 mg/kg, po incubated for 3 hrs by LC-MS/MS analysis; type: ADME, organism-based; settings: read-out: Drug uptake
[29] = Oral bioavailability in C57BL/6 mouse at 5 mg/kg by HPLC analysis; type: ADME, organism-based; settings: in vivo
[30] = AUC (0 to t) in Sprague-Dawley rat at 3 mg/kg, po by HPLC analysis; type: ADME, organism-based; settings: in vivo
[31] = Clearance in Sprague-Dawley rat at 1 mg/kg, iv or 3 mg/kg, po by HPLC analysis; type: ADME, organism-based; settings: in vivo
[32] = biological target: Serine/threonine-protein kinase mTOR (Rattus norvegicus, UniProt P42346, L2427P); assay: Inhibition of mTOR L2427P mutant in rat primary cortical neuron assessed as reduction in PS6 phosphorylation incubated for 4 hrs by Western blot analysis (reference value: 19 nM)
Sequence of Serine/threonine-protein kinase mTOR (Rattus norvegicus, UniProt P42346, L2427P) (P42346 whole entry L2427P, looked up): as the sequence (P42346 whole entry S2215Y, looked up) above, with Y2215S, L2427P counted along it

Mus musculus [33] = assay: In vivo inhibition of mTOR pathway in C57BL/6J mouse assessed as reduction in mTORC1/mTORC2 complex by measuring PS6 phosphorylation level at 1 to 10 mg/kg, po measured after 24 hrs by Western blot analysis; type: functional, organism-based
Cortical neurone = assay: Inhibition of oversizing of mouse primary cortical neuron harboring TSC1 deletion mutant at 200 nM incubated for 7 days by immunofluorescence assay; type: functional, cell-based; settings: 168 h

## C[C@@H]1COCCN1c1nc(N2CCOC[C@@H]2C)nc2sc(-c3cc[nH]n3)nc12
[1]
  Cmax: 1120 nM
[2]
  Vd: 2.6 L/kg
[3]
  IC50: > 10000 nM
[4]
  Ratio IC50: 38
[5]
  concentration at 3 h: 826 nM
[6]
  IC50: 14 nM
[7]
  clearance: 6.5 mL/min/kg
[8]
  Ratio IC50: 230
Mus musculus [9]
  Activity: 84%
[10]
  Kp at 2 h: 1.2
Mus musculus [11]
  inhibition: inactive
[12]
  microsomal CLint: 42 µL/min/mg
[13]
  inhibition: Dose-dependent effect
[14]
  IC50: 17 nM
[15]
  IC50: 5.6 nM
Mus musculus [16]
  inhibition: inactive
[17]
  Kp at 0.5 h: 1
[18]
  microsomal CLint at 1 µM: 42 µL/min/mg
[19]
  Kp at 1 h: 4
[20]
  Vd: 2.3 L/kg
[21]
  Ratio IC50: 70
[22]
  bioavailability: 81%
[23]
  fraction unbound at 4 h, 5 µM: 0.004
[24]
  inhibition: Active
[25]
  half-life: 3.7 h
[26]
  concentration at 3 h: 4470 nM
[27]
  IC50: 37 nM
[28]
  concentration at 3 h: 929 nM
[29]
  bioavailability: 61%
[30]
  AUC(0-t): 10.5 µM·h
[31]
  clearance: 9.5 mL/min/kg
[32]
  IC50: 24 nM
Mus musculus [33]
  inhibition: inactive
Cortical neurone
  IC50: 30 nM
